This passage reports T/C results from PubChem BioAssay AID330 (DTP/NCI, 2004).

For the test, the system named is P388 leukemia ip, CD2F1 mice, survival T/C. The experiment in a line: NCI In Vivo Anticancer Drug Screen. Data for tumor model P388 Leukemia (intraperitoneal) in CD2F1 (CDF1) mice. Conditions: higher = longer survival. Put shortly: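 Mice carrying the transplanted tumor received test compound or vehicle. Survival was recorded in each group, and the value is the treated-group measurement divided by that of the vehicle-treated control group.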

[1] abbreviates: endpoint: median survival time, dose: 100.0 mg/kg/injection, schedule: Q04DX003 (ip), vehicle: saline with Tween-80.
Setting [2] is: endpoint: median survival time, dose: 200.0 mg/kg/injection, schedule: Q04DX003 (ip), vehicle: saline with Tween-80.
Setting [3] is: endpoint: median survival time, dose: 100.0 mg/kg/injection, schedule: Q01DX009 (ip), vehicle: saline.
Setting [4] is: endpoint: median survival time, dose: 200.0 mg/kg/injection, schedule: Q01DX009 (ip), vehicle: saline.
The mark [5] stands for this setting: endpoint: median survival time, dose: 50.0 mg/kg/injection, schedule: Q04DX003 (ip), vehicle: saline.
Setting [6] is: endpoint: median survival time, dose: 100.0 mg/kg/injection, schedule: Q04DX003 (ip), vehicle: saline.
Setting [7] is: endpoint: median survival time, dose: 200.0 mg/kg/injection, schedule: Q04DX003 (ip), vehicle: saline.
[8] abbreviates: endpoint: median survival time, dose: 50.0 mg/kg/injection, schedule: Q01DX005 (ip), vehicle: saline.
Where [9] appears, read: endpoint: median survival time, dose: 100.0 mg/kg/injection, schedule: Q01DX009 (ip), vehicle: Klucel (hydroxypropylcellulose) (HPC).
Setting [10] is: endpoint: median survival time, dose: 200.0 mg/kg/injection, schedule: Q01DX009 (ip), vehicle: Klucel (hydroxypropylcellulose) (HPC).
[11] abbreviates: endpoint: median survival time, dose: 50.0 mg/kg/injection, schedule: Q01DX009 (ip), vehicle: Klucel (hydroxypropylcellulose) (HPC).
Setting [12] is: endpoint: median survival time, dose: 50.0 mg/kg/injection, schedule: Q01DX009 (ip), vehicle: saline with Tween-80.
The mark [13] stands for this setting: endpoint: median survival time, dose: 60.0 mg/kg/injection, schedule: Q01DX005 (ip), vehicle: saline with Tween-80.
Where [14] appears, read: endpoint: median survival time, dose: 120.0 mg/kg/injection, schedule: Q01DX005 (ip), vehicle: saline with Tween-80.
[15] abbreviates: endpoint: median survival time, dose: 240.0 mg/kg/injection, schedule: Q01DX005 (ip), vehicle: saline with Tween-80.

Several values for one entry are separate records, joined by “and”; a condition that tells them apart may be missing. Equal entries are not always repeated. Inconclusive results and toxic doses are left out.

For `CC(=O)OCCn1c2ccccc2nc2cc3c(cc21)c(Cl)c(=O)c1ccccc13`, the T/C was 96 % of control (endpoint: median survival time, dose: 50.0 mg/kg/injection, schedule: Q04DX003 (ip), vehicle: saline with Tween-80); 100 % of control under setting [1]; 100 % of control under setting [2].

On to `CCOC(CNN)OCC`, for which the T/C under setting [3] was 106 % of control and the T/C under setting [4] was 91 % of control.

With `O=S(=O)(O)c1ccc(-c2ccc(S(=O)(=O)O)cc2)cc1` (tested in a mixture with another compound), the T/C was 253 % of control (endpoint: mean survival time, dose: 20.0 mg/kg/injection, schedule: Q01DX009 (ip), vehicle: saline); 232 % of control (endpoint: mean survival time, dose: 40.0 mg/kg/injection, schedule: Q01DX009 (ip), vehicle: saline); 154 % of control (endpoint: median survival time, dose: 12.5 mg/kg/injection, schedule: Q01DX009 (ip), vehicle: saline sonified); 231 % of control (endpoint: median survival time, dose: 20.0 mg/kg/injection, schedule: Q01DX009 (ip), vehicle: saline); 150 % of control (endpoint: median survival time, dose: 25.0 mg/kg/injection, schedule: Q01DX009 (ip), vehicle: saline sonified); 165 % of control (endpoint: median survival time, dose: 33.0 mg/kg/injection, schedule: Q04DX003 (ip), vehicle: saline). Also, the T/C runs as follows: (endpoint: median survival time, dose: 40.0 mg/kg/injection, schedule: Q01DX009 (ip), vehicle: saline) 272 % of control; (endpoint: median survival time, dose: 50.0 mg/kg/injection, schedule: Q01DX009 (ip), vehicle: saline sonified) 272 % of control; (endpoint: median survival time, dose: 50.0 mg/kg/injection, schedule: Q04DX003 (ip), vehicle: saline sonified) 181 % of control; under setting [5], 169 % of control; (endpoint: median survival time, dose: 75.0 mg/kg/injection, schedule: Q04DX003 (ip), vehicle: saline) 221 % of control.

In the case of `CC1NS(=O)(=O)c2ccccc2C1=O` (configuration not stated), the T/C was 100 % of control under setting [6]; 101 % of control under setting [7]; 108 % of control (endpoint: median survival time, dose: 400.0 mg/kg/injection, schedule: Q04DX003 (ip), vehicle: saline).

In the case of `COCC1(O)C=CC(=O)O1` (configuration not stated), the T/C under setting [8] was 105 % of control.

In the case of `O=C1COCC(=O)OCCOCCSCCOCCO1`, the T/C (endpoint: median survival time, dose: 100.0 mg/kg/injection, schedule: Q04DX003 (ip), vehicle: Klucel (hydroxypropylcellulose) (HPC)) was 102 % of control; the T/C (endpoint: median survival time, dose: 200.0 mg/kg/injection, schedule: Q04DX003 (ip), vehicle: Klucel (hydroxypropylcellulose) (HPC)) was 102 % of control; the T/C (endpoint: median survival time, dose: 400.0 mg/kg/injection, schedule: Q04DX003 (ip), vehicle: Klucel (hydroxypropylcellulose) (HPC)) is 100 % of control.

As for `Cc1coc2c1CC1(C)C(CCC(OC(=O)CC(C)C)C1C)C2=O` (configuration not stated) (tested in a mixture with another compound), the T/C runs as follows: under setting [9], 105 % of control; under setting [10], 93 % of control.

As for `N#CC(N)(C#N)C(N)=O`, the T/C runs as follows: (endpoint: median survival time, dose: 100.0 mg/kg/injection, schedule: Q01DX001 (ip), vehicle: saline) 101 % of control; (endpoint: median survival time, dose: 200.0 mg/kg/injection, schedule: Q01DX001 (ip), vehicle: saline) 101 % of control; (endpoint: median survival time, dose: 400.0 mg/kg/injection, schedule: Q01DX001 (ip), vehicle: saline) 103 % of control.

With `CC(=O)C1=CN(Cc2ccccc2)C=C(C(C)C)C1`, the T/C is 98 % of control under setting [5]; 104 % of control (endpoint: median survival time, dose: 50.0 mg/kg/injection, schedule: Q04DX003 (ip), vehicle: suspension in saline); 101 % of control under setting [6]; 103 % of control (endpoint: median survival time, dose: 100.0 mg/kg/injection, schedule: Q04DX003 (ip), vehicle: suspension in saline); 104 % of control under setting [7]; 105 % of control (endpoint: median survival time, dose: 200.0 mg/kg/injection, schedule: Q04DX003 (ip), vehicle: suspension in saline).

For the molecule `CN1C2C=CC1c1c(C3=NC(C)(C)CO3)cccc12` (configuration not stated), the T/C is, setting by setting: under setting [8], 98 % of control; (endpoint: median survival time, dose: 100.0 mg/kg/injection, schedule: Q01DX005 (ip), vehicle: saline) 103 % of control.

Consider `CCn1c(=O)c2[nH]c(=S)[nH]c2n(C2CC2)c1=O`, for which the T/C is, setting by setting: under setting [11], 97 % of control; under setting [9], 101 % of control; under setting [10], 113 % of control.

For `Cc1ccc2c(c1)C(=O)C(CN1CCCCC1)CO2` (configuration not stated), the T/C under setting [6] is 108 % of control and the T/C under setting [7] was 108 % of control.

On to `O=C(O)C[P+](Cc1ccccc1)(c1ccccc1)c1ccccc1`, for which the T/C (endpoint: median survival time, dose: 25.0 mg/kg/injection, schedule: Q01DX009 (ip), vehicle: Klucel (hydroxypropylcellulose) (HPC)) was 97 % of control; the T/C under setting [11] is 102 % of control and 113 % of control; the T/C under setting [9] was 101 % of control and 103 % of control; the T/C under setting [10] was 95 % of control.

Take `CCC1(C)C(C#N)C(=O)NC(=O)C1C#N` (configuration not stated): the T/C by setting is: (endpoint: median survival time, dose: 25.0 mg/kg/injection, schedule: Q01DX009 (ip), vehicle: saline with Tween-80) 95 % of control; under setting [12], 95 % of control.

Regarding `CCCCCCCCCCCC1NC(=S)NC(=O)C1C#N` (configuration not stated), the T/C was 95 % of control under setting [11], 93 % of control under setting [9] and 92 % of control under setting [10].

As to `O=C(O)C(Cc1ccccc1)NC(c1ccccc1)P(=O)(O)O` (configuration not stated), the T/C runs as follows: under setting [13], 101 % of control; under setting [14], 99 % of control; under setting [15], 105 % of control.

Regarding `COC1CC(=O)C2OC(c3ccccc3)OCC2O1` (configuration not stated), the T/C (endpoint: median survival time, dose: 1.56 mg/kg/injection, schedule: Q01DX009 (ip), vehicle: other) is 88 % of control; the T/C (endpoint: median survival time, dose: 3.13 mg/kg/injection, schedule: Q01DX009 (ip), vehicle: other) was 94 % of control; the T/C (endpoint: median survival time, dose: 6.25 mg/kg/injection, schedule: Q01DX009 (ip), vehicle: other) is 106 % of control; the T/C (endpoint: median survival time, dose: 12.5 mg/kg/injection, schedule: Q01DX009 (ip), vehicle: other) was 96 % of control; the T/C (endpoint: median survival time, dose: 25.0 mg/kg/injection, schedule: Q01DX009 (ip), vehicle: other) is 100 % of control and 97 % of control; the T/C (endpoint: median survival time, dose: 50.0 mg/kg/injection, schedule: Q01DX009 (ip), vehicle: other) was 99 % of control. Further, the T/C runs as follows: (endpoint: median survival time, dose: 100.0 mg/kg/injection, schedule: Q01DX009 (ip), vehicle: other) 92 % of control; (endpoint: median survival time, dose: 200.0 mg/kg/injection, schedule: Q01DX009 (ip), vehicle: other) 87 % of control; (endpoint: median survival time, dose: 400.0 mg/kg/injection, schedule: Q01DX009 (ip), vehicle: other) 98 % of control.

`OCC(Cl)Cc1cnc[nH]1` (configuration not stated): the T/C was 102 % of control under setting [12]; 99 % of control (endpoint: median survival time, dose: 100.0 mg/kg/injection, schedule: Q01DX009 (ip), vehicle: saline with Tween-80); 93 % of control (endpoint: median survival time, dose: 200.0 mg/kg/injection, schedule: Q01DX009 (ip), vehicle: saline with Tween-80).

Regarding `O=C(O)C(O)C(O)C(O)C(=O)O` (configuration not stated), the T/C (endpoint: median survival time, dose: 50.0 mg/kg/injection, schedule: Q01DX009 (ip), vehicle: saline) was 101 % of control; the T/C under setting [3] was 107 % of control; the T/C under setting [4] is 91 % of control.

In the case of `CC1=NS(C)(=O)=c2ccccc2=N1` (configuration not stated), the T/C by setting is: under setting [1], 105 % of control; under setting [2], 105 % of control; (endpoint: median survival time, dose: 400.0 mg/kg/injection, schedule: Q04DX003 (ip), vehicle: saline with Tween-80) 106 % of control.

`O=C(Nc1ccc(Cl)cc1)Nc1nnc(-c2ccc(Cl)cc2Cl)o1`: the T/C is 91 % of control under setting [13], 86 % of control under setting [14] and 97 % of control under setting [15].

In the case of `O=S(=O)(Nc1ccccc1C(F)(F)F)c1ccc(F)cc1`, the T/C reads like this: under setting [13], 99 % of control; under setting [14], 100 % of control; under setting [15], 95 % of control.
